{"source": "patent US9730922B2", "about": "“Combined therapy for cystic fibrosis” (I.E.R.F.C. EUROPEAN INSTITUTE FOR CYSTIC FIBROSIS RESEARCH, priority 2012, dated 2017)", "key": {"[1]": {"test_system": "Cftr^F508del mice", "test": "Cftr^F508del mice, CFTR localisation and lung inflammation", "type": "in vivo", "settings": "for signs of lung inflammation: wt littermates"}, "[2]": {"target": "T1, ΔF508-CFTR (Homo sapiens, UniProt P13569, DEL508-508)", "T1 sequence (P13569 with tags, fused parts or gaps DEL508-508)": "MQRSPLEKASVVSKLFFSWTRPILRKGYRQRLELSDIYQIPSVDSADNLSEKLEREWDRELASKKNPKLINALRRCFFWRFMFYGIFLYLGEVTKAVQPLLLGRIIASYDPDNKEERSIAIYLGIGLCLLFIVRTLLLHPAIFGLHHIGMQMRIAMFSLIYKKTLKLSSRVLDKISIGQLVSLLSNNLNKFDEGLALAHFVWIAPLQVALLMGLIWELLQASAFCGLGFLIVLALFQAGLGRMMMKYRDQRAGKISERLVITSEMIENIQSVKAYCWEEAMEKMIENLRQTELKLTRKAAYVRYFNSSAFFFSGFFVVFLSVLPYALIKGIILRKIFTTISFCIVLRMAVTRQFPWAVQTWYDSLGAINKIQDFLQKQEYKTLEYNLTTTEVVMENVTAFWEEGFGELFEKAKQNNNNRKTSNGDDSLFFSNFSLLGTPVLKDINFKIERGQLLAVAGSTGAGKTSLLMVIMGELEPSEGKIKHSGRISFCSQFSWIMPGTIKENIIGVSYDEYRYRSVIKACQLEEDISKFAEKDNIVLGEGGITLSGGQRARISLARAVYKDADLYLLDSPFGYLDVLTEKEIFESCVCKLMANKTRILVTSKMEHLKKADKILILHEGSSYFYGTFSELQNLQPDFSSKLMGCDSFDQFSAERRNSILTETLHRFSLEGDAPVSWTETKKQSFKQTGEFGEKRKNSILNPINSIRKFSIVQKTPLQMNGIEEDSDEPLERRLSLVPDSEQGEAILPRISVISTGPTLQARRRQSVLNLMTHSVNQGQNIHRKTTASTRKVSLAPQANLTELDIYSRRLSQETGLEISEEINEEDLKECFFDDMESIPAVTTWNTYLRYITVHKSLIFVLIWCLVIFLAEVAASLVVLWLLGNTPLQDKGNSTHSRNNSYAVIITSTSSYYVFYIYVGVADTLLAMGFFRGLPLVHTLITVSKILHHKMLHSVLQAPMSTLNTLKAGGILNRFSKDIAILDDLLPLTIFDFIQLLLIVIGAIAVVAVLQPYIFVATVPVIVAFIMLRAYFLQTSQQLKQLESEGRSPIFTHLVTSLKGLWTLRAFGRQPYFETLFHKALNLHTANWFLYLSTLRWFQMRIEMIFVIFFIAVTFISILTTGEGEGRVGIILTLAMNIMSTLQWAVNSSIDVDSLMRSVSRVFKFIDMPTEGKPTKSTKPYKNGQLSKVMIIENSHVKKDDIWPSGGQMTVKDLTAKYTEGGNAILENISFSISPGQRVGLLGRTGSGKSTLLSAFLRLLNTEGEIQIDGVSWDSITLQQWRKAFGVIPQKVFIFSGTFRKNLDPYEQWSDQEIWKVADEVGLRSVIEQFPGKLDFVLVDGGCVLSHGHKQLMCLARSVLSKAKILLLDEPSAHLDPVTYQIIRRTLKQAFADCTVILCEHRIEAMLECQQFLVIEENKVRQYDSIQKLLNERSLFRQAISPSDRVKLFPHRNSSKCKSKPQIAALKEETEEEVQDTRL", "test": "SPQ halide (iodide) efflux assay in freshly isolated brushed nasal epithelial cells", "type": "cell-based", "design": "Nasal epithelial cells freshly isolated by nasal brushing from 5 CF patients carrying ΔF508/ΔF508 CFTR mutations; endogenous in cells; host or cells: primary brushed nasal epithelial cells from ΔF508/ΔF508 CF patients", "settings": "18 h exposure, wash and reculture 24 h with medium; brushed nasal cells from ΔF508/ΔF508 patients", "description": "We examined whether cystamine or EUK-134 (Luciani A, 2010) would induce and sustain functional ΔF508-CFTR expression in freshly isolated brushed nasal epithelial cells from ΔF508/ΔF508 patients (Table 1A). We used primary nasal epithelial cells freshly obtained from ΔF508-CFTR homozygous patients, to directly test the efficacy of these autophagy-rescuing strategies on CFTR function in human airways. We used a fluorescent-based SPQ halide efflux assays (Silvis M R, 2009) to test the response to a short pulse of forskolin (FSK) added together with either of two different CFTR potentiators, genistein or VX-532, (Van Goor F, 2010) and analyzed at least 50 brushed nasal cells for group of treatment in each patient. Freshly isolated brushed nasal epithelial cells were incubated for 18 h with either cystamine or EUK-134 or with the well known CFTR correctors Corr-4a and VRT-325.\nNasal epithelial cells freshly isolated by nasal brushing from 5 CF patients carrying ΔF508/ΔF508 CFTR mutations (see Table 1A) and 5 non-CF age- and sex-matched controls (3 F, mean age 12.5 yrs) were immersed in washing solution (PBS, DTT 2 mM, EDTA 10 mM) at 37° C. for 1 h on thermal shaker, centrifuged at 2,300×g for 20 min and washed in PBS. The isolated cells were maintained in 1 ml MEM Earl's salt L-Glutamine medium supplemented with 10% FBS and the appropriate amount of penicillin/streptomycin.^31 Brushed nasal cells were cultured for 18 h with medium, Vrx-325, Corr-4a (10 μM up to 50 μM) (kindly provided by Cystic Fibrosis Foundation, USA), cystamine (250 μM, Sigma-Aldrich), EUK-134 (50 μg ml^−1, Vinci Biochem), followed by 24 h of incubation with medium alone.\nIodide efflux. […] Changes in CFTR-mediated SPQ fluorescence were monitored at the 445 nm wavelength in response to excitation at 340 nm during perfusion at 37° C. in nitrate buffer (NaI replaced with 130 mM NaNO3) for 10 min with 20 μM forskolin plus 50 μM genistein or 20 μM forskolin plus 20 μM VRX-532 (kindly provided by Cystic Fibrosis Foundation, USA). The peak iodide efflux rate (usually 12 min after forskolin plus genistein or forskolin plus Vrx-532) of treated or untreated cells was calculated in accordance with the Stern-Volmer relationship as follows: (Fo/F)−1=KCQ\nwhere F is the observed fluorescence, Fo is the fluorescence in the absence of a quenching anion, CQ is the concentration of the quenching anion, and K is the Stern-Volmer quench constant. The rates were calculated using SigmaPlot Version 7.1 for each mean fluorescence trace generated from the 50 cells examined per population per coverslip."}, "[3]": {"test_system": "ΔF508-CFTR homozygous airways", "settings": "mice in vivo and human tissues in vitro; cited from earlier work"}, "[4]": {"target": "T1, ΔF508-CFTR", "test": "CFTR function in airway epithelial cell lines after pre-treatment, washout and pulse with potentiators", "type": "cell-based", "design": "airway epithelial cell lines carrying ΔF508/ΔF508 CFTR mutations; endogenous in cells", "settings": "for enabling the activity of genistein, VX-532 and VX-770 on ΔF508-CFTR: 48 h after withdrawal of the pre-treatment; for enabling the action of CFTR potentiators genistein or VX-532 in stimulating CFTR channel function: pre-treatment 18 h, washout 48 h, single pulse with potentiator, ΔF508/ΔF508 airway epithelial cell lines; for stimulating CFTR function (as potentiator): after pre-treatment with the mentioned molecules followed by 48 h of washout", "quoted_text": "To provide the rationale for the use of either TG2 inhibitors or drugs that reduce ROS levels as pre-treatment before the administration of CFTR potentiators, another experimental setting was used, where airway epithelial cell lines carrying ΔF508/ΔF508 CFTR mutations were treated with cystamine or EUK-134 or where TG2 was depleted by a small interference RNA approach or where ROS were reduced by the overexpression of the human Manganese Superoxide-dismutase (Mn-SOD).\nAnother experimental approach was used to test the efficacy of other pharmacological agents able to damp down TG2 and/or reduce the levels of ROS. […] These pharmacological agents were tested following the experimental approach of pre-treatment (18 h), washout (48 h) and single pulse with potentiators, in presence or absence of PA-LPS stimulation after pulse with potentiators, following the procedure above described.\nMoreover, the efficacy of other molecules endowed with either ROS inhibiting activity or potentiator activity was tested."}, "[5]": {"test_system": "ΔF508-CFTR homozygous patients", "settings": "cited from earlier work"}, "[6]": {"test_system": "nasal polyp biopsies from ΔF508/ΔF508 patients", "test": "ex vivo cultures of nasal polyp mucosal biopsies (confocal microscopy, in situ TG2 activity)", "type": "cell-based, human", "method": "Nasal polyp biopsies from five ΔF508/ΔF508 patients (Table 1B) were treated with cystamine for 18 h, washed and then cultured for further 36 h in the absence of cystamine.\nNext, ΔF508/ΔF508 nasal polyp biopsies were pulsed for 30 min with genistein followed by 4 h incubation with PA-LPS. […] To examine whether pre-treatment with cystamine was effective in enabling the action of genistein in human airways, nasal polyp biopsies were incubated with cystamine or medium for 18 h, then washed and kept in medium alone for 24 h and finally pulsed for 30 min with genistein followed by 4 h PA-LPS.\nHuman samples: ex vivo cultures of nasal polyp mucosal biopsies. Nasal polyp biopsies from 5 ΔF508 homozygous patients undergoing surgical treatment for non-allergic nasal polyposis (see Table 1B) were cultured as previously described,^7,19,32 for 18 h with medium, cystamine or EUK-134, followed by 36 h of incubation with medium alone, and then pulsed for 30 min with medium or genistein followed by 4 h of PA-LPS challenge.\nHuman tissue sections: five-micrometer frozen human lung tissue sections were fixed in acetone for 10 min. The sections were incubated for 2 h at room temperature with the indicated antibodies (Abs). […] The primary Abs were: CFTR 1:100 (CF3, Abcam), CFTR 1:100 (H-182, Santa Cruz Biotecnology) (used on mouse tissue), phospho-Tyr 1:200 (Santa Cruz Biotecnology), p62 1:300 (Sigma). These were followed by incubation with Alexa 488 or 546 secondary antibodies (Molecular Probe, Invitrogen). Data were analyzed under fluorescence examination by a LSM510 Zeiss confocal laser-scanning unit (Carl Zeiss, Germany).\nIn situ detection of TG2 exzyme activity. TG2 activity in tissue samples was detected by incubating unfixed sections with biotinylated monodansylcadaverine for 1 h at 37° C. The incorporation of labeled substrate was visualized by incubation with Alexa 546-conjugated streptavidin (1:100; Molecular Probes, Invitrogen) for 30 min."}, "[7]": {"settings": "i.p. 7 days followed by 10 days of vehicle only"}}}
{"compound": "Cn1cnc(N)c2ncnc1-2", "note": "[3-MA]", "values": [{"measurement": "effects of cystamine (ΔF508 re-location, reduced lung inflammation) with co-treatment during the phase of withdrawal", "setting": "[1]; intraperitoneal treatment during the withdrawal phase", "result": "abrogated"}]}
{"compound": "COc1ccc(Cl)cc1Nc1nc(-c2sc(NC(=O)c3ccccc3)nc2C)cs1", "note": "[Corr-4a]", "values": [{"measurement": "ΔF508-CFTR response to a short pulse of forskolin plus genistein or VX-532 (SPQ halide efflux)", "setting": "[2]", "result": "only had scarce effects"}]}
{"compound": "COc1cccc(C=NCCN=Cc2cccc(OC)c2[O-])c1[O-].[Cl-].[Mn+3]", "note": "[EUK-134]", "values": [{"measurement": "inflammation in ΔF508-CFTR homozygous airways", "setting": "[3]", "result": "blunts inflammation"}, {"measurement": "enabling the activity of genistein, VX-532 and VX-770 on ΔF508-CFTR", "setting": "[4]", "result": "enables the activity of the CFTR potentiators genistein and VX-532 as well as of the well known CFTR potentiator VX-770"}, {"measurement": "enabling the action of CFTR potentiators genistein or VX-532 in stimulating CFTR channel function", "setting": "[4]", "result": "similarly effective in enabling the action of CFTR potentiators"}, {"measurement": "ΔF508-CFTR response to a short pulse of forskolin plus genistein or VX-532 (SPQ halide efflux)", "setting": "[2]", "result": "rendered the cells capable of conserving ΔF508-CFTR response"}]}
{"compound": "COc1ccc(S(=O)(=O)N2CCN(C(C)c3nc(OC4CCCCC4)c4ccccc4n3)CC2)cc1", "note": "(centres unmarked) [VRT-325]", "values": [{"measurement": "ΔF508-CFTR response to a short pulse of forskolin plus genistein or VX-532 (SPQ halide efflux)", "setting": "[2]", "result": "only had scarce effects"}]}
{"compound": "Cc1ccc(NC(=O)C2(c3ccc4c(c3)OC(F)(F)O4)CC2)nc1-c1cccc(C(=O)O)c1", "note": "[VX-809]", "values": [{"measurement": "lung function or CF complications", "setting": "[5]", "result": "no improvement"}, {"measurement": "sweat chloride", "setting": "[5]", "result": "modest dose-dependent reductions"}]}
{"compound": "CC(=O)N[C@@H](CS)C(=O)O", "note": "[acetylcysteine]", "values": [{"measurement": "inflammation in ΔF508-CFTR homozygous airways", "setting": "[3]", "result": "blunts inflammation"}]}
{"compound": "O=c1cc(-c2ccc(O)cc2)oc2cc(O)cc(O)c12", "note": "[apigenin]", "values": [{"measurement": "stimulating CFTR function (as potentiator)", "setting": "[4]", "result": "as effective as genistein in stimulating CFTR function"}]}
{"compound": "NCCSSCCN", "note": "[cystamine]", "values": [{"measurement": "reduction of signs of mucosal inflammation (TG2 activation and protein tyrosine phosphorylation)", "setting": "[6]; cystamine 18 h, washed, 36 h washout", "result": "persisted after 36 h of washout"}, {"measurement": "rescue of CFTR at the epithelial surface (confocal microscopy)", "setting": "[6]; cystamine 18 h, washed, 36 h without cystamine", "result": "persisted for 36 h after cystamine withdrawal"}, {"measurement": "lung inflammation", "setting": "[1]; daily inhalations of aerosolized 0.2 mg/mouse/day for one week", "result": "reduced lung inflammation"}, {"measurement": "re-location of ΔF508 protein at the respiratory epithelial surface", "setting": "[1]; [7]", "result": "persisted for 10 days after cystamine withdrawal"}, {"measurement": "reducing lung inflammation", "setting": "[1]; [7]", "result": "persisted for 10 days after cystamine withdrawal"}, {"measurement": "signs of lung inflammation", "setting": "[1]", "result": "not effective"}, {"measurement": "inflammation in ΔF508-CFTR homozygous airways", "setting": "[3]", "result": "blunts inflammation"}, {"measurement": "enabling the activity of genistein, VX-532 and VX-770 on ΔF508-CFTR", "setting": "[4]", "result": "enables the activity of the CFTR potentiators genistein and VX-532 as well as of the well known CFTR potentiator VX-770"}, {"measurement": "enabling the action of CFTR potentiators genistein or VX-532 in stimulating CFTR channel function", "setting": "[4]", "result": "similarly effective in enabling the action of CFTR potentiators"}, {"measurement": "ΔF508-CFTR response to a short pulse of forskolin plus genistein or VX-532 (SPQ halide efflux)", "setting": "[2]", "result": "rendered the cells capable of conserving ΔF508-CFTR response"}]}
{"compound": "Oc1cc(O)c2c(c1)O[C@H](c1cc(O)c(O)c(O)c1)[C@H](O)C2", "note": "[epigallocatechin]", "values": [{"measurement": "stimulating CFTR function (as potentiator)", "setting": "[4]", "result": "as effective as genistein in stimulating CFTR function"}]}
{"compound": "O=c1c(-c2ccc(O)cc2)coc2cc(O)cc(O)c12", "note": "[genistein]", "values": [{"measurement": "epithelial protein phosphorylation", "setting": "[6]; 30 min pulse followed by 4 h PA-LPS, no pre-treatment", "result": "not effective in reducing epithelial protein phosphorylation"}, {"measurement": "signs of lung inflammation after genistein pulse and aerosolized PA-LPS", "setting": "[1]; mice not pretreated with cystamine", "result": "had no effect on its own"}, {"measurement": "signs of lung inflammation after genistein pulse and aerosolized PA-LPS", "setting": "[1]; mice pre-treated with aerosolized cystamine one week, one week without treatment", "result": "significantly reduced the signs of lung inflammation"}, {"measurement": "signs of lung inflammation", "setting": "[1]", "result": "not effective"}]}
{"compound": "O=c1c(O)c(-c2ccc(O)c(O)c2)oc2cc(O)cc(O)c12", "note": "[quercetin]", "values": [{"measurement": "stimulating CFTR function (as potentiator)", "setting": "[4]", "result": "as effective as genistein in stimulating CFTR function"}]}
{"compound": "COc1cc(C2Oc3cc([C@H]4Oc5cc(O)cc(O)c5C(=O)[C@@H]4O)ccc3OC2CO)ccc1O", "note": "(some centres unmarked) [silybin]", "values": [{"measurement": "stimulating CFTR function (as potentiator)", "setting": "[4]", "result": "as effective as genistein in stimulating CFTR function"}]}
{"compound": "catechin", "values": [{"measurement": "stimulating CFTR function (as potentiator)", "setting": "[4]", "result": "as effective as genistein in stimulating CFTR function"}]}
